According to the supplement of paper PMC10307832:

Tests used:
Assay in all cases: relative viability (nuclei count vs DMSO), 5 days (fraction); higher = more cells survive
SW 900 = system: SW 900
Summary of the method: (§1)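 Relative viability was taken as the ratio of nuclei in treated wells to nuclei in vehicle wells. Lung cancer cell lines in 1536-well plates received compounds by pin tool one day after seeding, either one drug alone or a fixed anchor-drug dose plus five library-drug doses (not always all listed) in √10 steps. Nuclei were counted on 4× images after 5 days of treatment, and values are medians of duplicate plates.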

HCC-44 = system: HCC-44
Summary of the method: as §1

NCI-H596 = system: NCI-H596
Summary of the method: as §1

A-427 = system: A-427
Summary of the method: as §1

NCI-H2347 = system: NCI-H2347
Summary of the method: as §1

LCLC-97TM1 = system: LCLC-97TM1
Summary of the method: as §1

LCLC-103H = system: LCLC-103H
Summary of the method: as §1

LC-2-ad = system: LC-2-ad
Summary of the method: as §1

LU99A = system: LU99A
Summary of the method: as §1

201T = system: 201T
Summary of the method: as §1

H3255 = system: H3255
Summary of the method: as §1

PC-14 = system: PC-14
Summary of the method: as §1

NCI-H727 = system: NCI-H727
Summary of the method: as §1

COR-L23 = system: COR-L23
Summary of the method: as §1

LK-2 = system: LK-2
Summary of the method: as §1

NCI-H23 = system: NCI-H23
Summary of the method: as §1

NCI-H2228 = system: NCI-H2228
Summary of the method: as §1

NCI-H1793 = system: NCI-H1793
Summary of the method: as §1

SW 1573 = system: SW 1573
Summary of the method: as §1

NCI-H1650 = system: NCI-H1650
Summary of the method: as §1

NCI-H460 = system: NCI-H460
Summary of the method: as §1

PC-3 [JPC-3] = system: PC-3 [JPC-3]
Summary of the method: as §1

`COc1nc(C)cnc1NS(=O)(=O)c1cccnc1-c1ccc(-c2nnco2)cc1` [Zibotentan] + O=C(c1cc(Cc2n[nH]c(=O)c3ccccc23)ccc1F)N1CCN(C(=O)C2CC2)CC1 [Olaparib] (partner 8 µM) showed a relative viability (SW 900; first compound 0.08 µM) of 0.922, a relative viability (SW 900; first compound 0.253 µM) of 0.647 and a relative viability (SW 900; first compound 0.8 µM) of 0.853. The relative viability (SW 900; first compound 2.53 µM) was 0.81, the relative viability (HCC-44; first compound 0.08 µM) was 0.958 and the relative viability (HCC-44; first compound 0.253 µM) was 0.965. The relative viability (HCC-44; first compound 0.8 µM) was 0.98, the relative viability (HCC-44; first compound 2.53 µM) was 0.957 and the relative viability (NCI-H596; first compound 0.08 µM) was 0.661. The relative viability (NCI-H596; first compound 0.253 µM) was 0.595, the relative viability (NCI-H596; first compound 0.8 µM) was 0.831 and the relative viability (NCI-H596; first compound 2.53 µM) was 0.774. It also gave a relative viability (A-427; first compound 0.08 µM) of 0.755, a relative viability (A-427; first compound 0.253 µM) of 0.704 and a relative viability (A-427; first compound 0.8 µM) of 0.64. The relative viability (A-427; first compound 2.53 µM) was 0.799, the relative viability (NCI-H2347; first compound 0.08 µM) was 0.47 and the relative viability (NCI-H2347; first compound 0.253 µM) was 0.596. The relative viability (NCI-H2347; first compound 0.8 µM) was 0.635, the relative viability (NCI-H2347; first compound 2.53 µM) was 0.615 and the relative viability (LCLC-97TM1; first compound 0.08 µM) was 0.383. The relative viability (LCLC-97TM1; first compound 0.253 µM) was 0.393, the relative viability (LCLC-97TM1; first compound 0.8 µM) was 0.433 and the relative viability (LCLC-97TM1; first compound 2.53 µM) was 0.385. For the same compound, the relative viability (LCLC-103H; first compound 0.08 µM) was 0.738, the relative viability (LCLC-103H; first compound 0.253 µM) was 0.74 and the relative viability (LCLC-103H; first compound 0.8 µM) was 0.696. The relative viability (LCLC-103H; first compound 2.53 µM) was 0.751, the relative viability (LC-2-ad; first compound 0.08 µM) was 0.68 and the relative viability (LC-2-ad; first compound 0.253 µM) was 0.682. For the same compound, the relative viability (LC-2-ad; first compound 0.8 µM) was 0.721, the relative viability (LC-2-ad; first compound 2.53 µM) was 0.71 and the relative viability (LU99A; first compound 0.08 µM) was 0.269. For the same compound, the relative viability (LU99A; first compound 0.253 µM) was 0.259, the relative viability (LU99A; first compound 0.8 µM) was 0.181 and the relative viability (LU99A; first compound 2.53 µM) was 0.255. It also gave a relative viability (201T; first compound 0.08 µM) of 0.819, a relative viability (201T; first compound 0.253 µM) of 0.828 and a relative viability (201T; first compound 0.8 µM) of 0.846. It also gave a relative viability (201T; first compound 2.53 µM) of 0.876, a relative viability (H3255; first compound 0.08 µM) of 0.552 and a relative viability (H3255; first compound 0.253 µM) of 0.529. For the same compound, the relative viability (H3255; first compound 0.8 µM) was 0.588, the relative viability (H3255; first compound 2.53 µM) was 0.56 and the relative viability (PC-14; first compound 0.08 µM) was 0.206. The relative viability (PC-14; first compound 0.253 µM) was 0.271, the relative viability (PC-14; first compound 0.8 µM) was 0.276 and the relative viability (PC-14; first compound 2.53 µM) was 0.315. For the same compound, the relative viability (NCI-H727; first compound 0.08 µM) was 0.712, the relative viability (NCI-H727; first compound 0.253 µM) was 0.586 and the relative viability (NCI-H727; first compound 0.8 µM) was 0.661. It also gave a relative viability (NCI-H727; first compound 2.53 µM) of 0.868, a relative viability (COR-L23; first compound 0.08 µM) of 0.324 and a relative viability (COR-L23; first compound 0.253 µM) of 0.284. For the same compound, the relative viability (COR-L23; first compound 0.8 µM) was 0.395, the relative viability (COR-L23; first compound 2.53 µM) was 0.352 and the relative viability (LK-2; first compound 0.08 µM) was 0.945. The relative viability (LK-2; first compound 0.253 µM) was 0.521, the relative viability (LK-2; first compound 0.8 µM) was 0.75 and the relative viability (LK-2; first compound 2.53 µM) was 0.718. It also gave a relative viability (NCI-H23; first compound 0.08 µM) of 0.266, a relative viability (NCI-H23; first compound 0.253 µM) of 0.235 and a relative viability (NCI-H23; first compound 0.8 µM) of 0.242. The relative viability (NCI-H23; first compound 2.53 µM) was 0.251, the relative viability (NCI-H2228; first compound 0.08 µM) was 0.658 and the relative viability (NCI-H2228; first compound 0.253 µM) was 0.573. For the same compound, the relative viability (NCI-H2228; first compound 0.8 µM) was 0.863, the relative viability (NCI-H2228; first compound 2.53 µM) was 0.924 and the relative viability (NCI-H1793; first compound 0.08 µM) was 0.998. For the same compound, the relative viability (NCI-H1793; first compound 0.253 µM) was 0.835, the relative viability (NCI-H1793; first compound 0.8 µM) was 0.796 and the relative viability (NCI-H1793; first compound 2.53 µM) was 0.957. The relative viability (SW 1573; first compound 0.08 µM) was 0.557, the relative viability (SW 1573; first compound 0.8 µM) was 0.544 and the relative viability (SW 1573; first compound 2.53 µM) was 0.459. The relative viability (NCI-H1650; first compound 0.08 µM) was 0.803, the relative viability (NCI-H1650; first compound 0.8 µM) was 0.757 and the relative viability (NCI-H1650; first compound 2.53 µM) was 0.682. It also gave a relative viability (NCI-H460; first compound 0.08 µM) of 0.42, a relative viability (NCI-H460; first compound 0.253 µM) of 0.346 and a relative viability (NCI-H460; first compound 0.8 µM) of 0.322. It also gave a relative viability (NCI-H460; first compound 2.53 µM) of 0.481, a relative viability (PC-3 [JPC-3]; first compound 0.08 µM) of 1.1 and a relative viability (PC-3 [JPC-3]; first compound 0.253 µM) of 1.09. It also gave a relative viability (PC-3 [JPC-3]; first compound 0.8 µM) of 1.21 and a relative viability (PC-3 [JPC-3]; first compound 2.53 µM) of 1.14.
